Values of other authors, collected in patent US20210186880A1, “ORAL FORMULATIONS WITH INCREASED UPTAKE” (Brown University, priority 2018, published 2021).
Read-outs that look alike come from different tables or passages of the source. Each block holds one substance with its values, some of them ahead of it.

How the values were obtained:
GLP-1 receptor [1] = molecular target: T1, GLP-1 receptor (Homo sapiens, UniProt P43220)
GLP-1 receptor [2] = molecular target: T1, GLP-1 receptor; remark: listed apart in the source
[3] = oral
[4] = in vivo

T1 sequence (P43220 24-463, species assumed): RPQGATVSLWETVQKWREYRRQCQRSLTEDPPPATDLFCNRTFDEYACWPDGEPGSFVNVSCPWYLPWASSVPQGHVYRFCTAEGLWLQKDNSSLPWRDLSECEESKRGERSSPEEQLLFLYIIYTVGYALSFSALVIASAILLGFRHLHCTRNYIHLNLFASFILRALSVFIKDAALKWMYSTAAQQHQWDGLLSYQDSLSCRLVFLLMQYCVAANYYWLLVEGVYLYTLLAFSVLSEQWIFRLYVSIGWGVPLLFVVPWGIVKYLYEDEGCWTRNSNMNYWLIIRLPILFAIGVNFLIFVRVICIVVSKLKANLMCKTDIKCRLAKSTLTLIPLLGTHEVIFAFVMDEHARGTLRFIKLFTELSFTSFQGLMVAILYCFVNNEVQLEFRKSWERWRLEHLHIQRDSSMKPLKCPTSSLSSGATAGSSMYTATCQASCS

- agonistic activity, decrease (GLP-1 receptor [1]): > 10000 fold
- binding affinity compared to the intact peptide, lower (GLP-1 receptor [2]): 100 fold
Substance: GLP-1(9-36)-NH2

Substance: Glucagon-like peptide-1 [GLP-1]
- ghrelin secretion [3]: suppressed ghrelin secretion
- insulin release [3]: potent effect on insulin release
- plasma drug concentrations ([3]; dose-escalating): rapid and dose-dependent increase in plasma drug concentrations
- bioavailabilities ([3]; doses of 0.5, 1.0, 2.0, and 4.0 mg): lower than 10%
- mean absolute bioavailability ([3]; relative to intravenous administration): 4%
- fasting and postprandial glucose values (continuous 48-hour subcutaneous infusion, ~4-8 ng·kg^−1·min^−1): lowered fasting and postprandial glucose values

Substance: rGLP-1: rGLP-1 infused at 1.25-8.5 pmol/kg/min in a cited study
- fasting serum glucose decrease (1.25 pmol/kg/min): 22.7 mg/dL
- fasting serum glucose decrease (2.5 pmol/kg/min): 37.0 mg/dL
- fasting serum glucose decrease (5.0 pmol/kg/min): 53.9 mg/dL
- fasting serum glucose decrease (8.5 pmol/kg/min): 76.2 mg/dL

Substance: semaglutide: GLP-1 analog acylated with a spacer and C-18 fatty di-acid chain
- plasma half-life [4]: long
